Reference: ChEMBL document CHEMBL5512651, “Synthesis and biological evaluation of 4-imidazolidinone-containing compounds as potent inhibitors of the MDM2/p53 interaction” (Eur J Med Chem, 2024)
Active and inactive are the calls of the source. The rule behind the calls is not given here.

How the values were obtained:
[1] = target: Cellular tumor antigen p53 (Homo sapiens) (UniProt P04637); experiment: Activation of p53 pathway in human MOLM-13 cells assessed as increase in MDM2 mRNA level incubated for 24 hrs by qPCR analysis; format: cell-based; conditions: filed as activator, dose 0.038-0.6 µM
Chain of Cellular tumor antigen p53 (Homo sapiens) (P04637 whole entry, looked up): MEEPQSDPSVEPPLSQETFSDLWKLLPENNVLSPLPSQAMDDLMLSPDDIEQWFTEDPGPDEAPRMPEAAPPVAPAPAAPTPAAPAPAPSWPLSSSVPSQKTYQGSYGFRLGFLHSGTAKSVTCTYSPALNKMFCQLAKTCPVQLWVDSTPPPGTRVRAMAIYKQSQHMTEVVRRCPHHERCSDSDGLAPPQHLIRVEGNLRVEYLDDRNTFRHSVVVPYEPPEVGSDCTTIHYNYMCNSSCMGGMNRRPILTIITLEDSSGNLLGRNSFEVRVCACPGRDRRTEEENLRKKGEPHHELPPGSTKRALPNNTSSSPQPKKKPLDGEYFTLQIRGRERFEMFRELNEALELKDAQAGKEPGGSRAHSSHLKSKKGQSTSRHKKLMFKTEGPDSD

[2] = target: Tumour suppressor p53/oncoprotein Mdm2 (Homo sapiens, UniProt Q00987); experiment: Inhibition of MDM2/p53 (unknown origin) interaction by fluorescence polarization assay; format: protein assay
Chain of Tumour suppressor p53/oncoprotein Mdm2 (P04637 whole entry): as the sequence (P04637 whole entry, looked up) above
Chain of Tumour suppressor p53/oncoprotein Mdm2 (Q00987 whole entry): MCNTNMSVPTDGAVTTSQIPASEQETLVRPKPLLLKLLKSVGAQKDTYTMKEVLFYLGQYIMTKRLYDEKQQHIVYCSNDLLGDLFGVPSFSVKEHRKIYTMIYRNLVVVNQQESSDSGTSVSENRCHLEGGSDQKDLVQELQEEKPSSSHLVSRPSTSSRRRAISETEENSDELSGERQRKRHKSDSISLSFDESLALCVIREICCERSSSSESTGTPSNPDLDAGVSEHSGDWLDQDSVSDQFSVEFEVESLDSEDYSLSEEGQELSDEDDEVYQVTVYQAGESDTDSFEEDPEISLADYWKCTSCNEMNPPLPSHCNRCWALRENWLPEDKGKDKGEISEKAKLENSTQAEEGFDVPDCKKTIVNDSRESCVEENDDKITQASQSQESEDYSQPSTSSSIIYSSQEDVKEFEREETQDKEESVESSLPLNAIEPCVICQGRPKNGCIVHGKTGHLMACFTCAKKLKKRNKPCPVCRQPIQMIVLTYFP

[3] = tested on: MOLM-13; experiment: Induction of apoptosis in human MOLM-13 cells assessed as late apoptotic cells at 2.7 uM incubated for 24 hrs by Annexin V-FITC/PI staining based flow cytometry (reference value: 0.457 %); format: functional
[4] = target: Cellular tumor antigen p53 (Homo sapiens) (UniProt P04637); experiment: Activation of p53 pathway in human A549 cells assessed as increase in p53 level at 1 uM incubated for 24 hrs by Western blot analysis; format: cell-based; conditions: filed as activator
[5] = tested on: MOLM-13; experiment: Induction of apoptosis in human MOLM-13 cells assessed as late apoptotic cells at 0.1 uM incubated for 24 hrs by Annexin V-FITC/PI staining based flow cytometry (reference value: 0.457 %); format: functional
[6] = target: Tumour suppressor protein p53/Mdm4 (Homo sapiens, UniProt O15151); experiment: Inhibition of MDM4/p53 (unknown origin) interaction by fluorescence polarization assay; format: protein assay
Chain of Tumour suppressor protein p53/Mdm4 (P04637 whole entry): as the sequence (P04637 whole entry, looked up) above
Chain of Tumour suppressor protein p53/Mdm4 (O15151 whole entry): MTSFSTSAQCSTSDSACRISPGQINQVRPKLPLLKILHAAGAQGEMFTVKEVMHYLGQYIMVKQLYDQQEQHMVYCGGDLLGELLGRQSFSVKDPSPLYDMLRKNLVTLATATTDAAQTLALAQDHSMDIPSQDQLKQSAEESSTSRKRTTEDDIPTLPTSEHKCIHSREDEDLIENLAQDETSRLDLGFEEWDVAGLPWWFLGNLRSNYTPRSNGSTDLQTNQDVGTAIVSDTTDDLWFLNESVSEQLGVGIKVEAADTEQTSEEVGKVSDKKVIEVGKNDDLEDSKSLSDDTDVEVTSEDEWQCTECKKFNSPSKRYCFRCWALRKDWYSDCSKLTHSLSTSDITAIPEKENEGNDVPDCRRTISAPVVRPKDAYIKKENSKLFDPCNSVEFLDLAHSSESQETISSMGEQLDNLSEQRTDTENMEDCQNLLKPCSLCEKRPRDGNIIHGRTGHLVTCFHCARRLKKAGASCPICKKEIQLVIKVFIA

[7] = Selectivity index, ratio of IC50 for HEK293 cells to IC50 for human SW480 cells
[8] = tested on: MOLM-13; experiment: Induction of apoptosis in human MOLM-13 cells assessed as early apoptotic cells at 24.3 uM incubated for 24 hrs by Annexin V-FITC/PI staining based flow cytometry (reference value: 4.44 %); format: functional
[9] = tested on: MOLM-13; experiment: Induction of apoptosis in human MOLM-13 cells assessed as early apoptotic cells at 0.9 uM incubated for 24 hrs by Annexin V-FITC/PI staining based flow cytometry (reference value: 4.44 %); format: functional
[10] = tested on: HCT-116; experiment: cells; conditions: Homo sapiens, HCT-116, 96 h
[11] = tested on: MOLM-13; experiment: Induction of apoptosis in human MOLM-13 cells assessed as viable cells at 24.3 uM incubated for 24 hrs by Annexin V-FITC/PI staining based flow cytometry (reference value: 95.1 %); format: functional; conditions: read-out: Activity
[12] = target: Cellular tumor antigen p53 (Homo sapiens) (UniProt P04637); experiment: Activation of p53 pathway in human HeLa cells assessed as increase in MDM2 level at 1 uM incubated for 24 hrs by Western blot analysis; format: cell-based
[13] = tested on: MOLM-13; experiment: Induction of apoptosis in human MOLM-13 cells assessed as increase in caspase-3 level at 0.15 to 0.6 uM incubated for 24 hrs by Western blot analysis; format: functional, cell-based; conditions: dose 0.15-0.6 µM
[14] = target: Cellular tumor antigen p53 (Homo sapiens) (UniProt P04637); experiment: Activation of p53 pathway in human MOLM-13 cells assessed as increase in BAX mRNA level incubated for 24 hrs by qPCR analysis; format: cell-based; conditions: filed as activator, dose 0.038-0.6 µM
[15] = target: Cellular tumor antigen p53 (Homo sapiens) (UniProt P04637); experiment: Activation of p53 pathway in human A549 cells assessed as increase in p21 level at 1 uM incubated for 24 hrs by Western blot analysis; format: cell-based; conditions: filed as activator
[16] = tested on: MOLM-13; experiment: Induction of apoptosis in human MOLM-13 cells assessed as late apoptotic cells at 0.9 uM incubated for 24 hrs by Annexin V-FITC/PI staining based flow cytometry (reference value: 0.457 %); format: functional
[17] = tested on: MOLM-13; experiment: Induction of apoptosis in human MOLM-13 cells assessed as viable cells at 0.3 uM incubated for 24 hrs by Annexin V-FITC/PI staining based flow cytometry (reference value: 95.1 %); format: functional; conditions: read-out: Activity

Question: For COc1cc(C(=O)O)ccc1N1CN2[C@@H](CC(C)(C)C)[C@@]3(CNc4cc(Cl)ccc43)[C@@H](c3cccc(Cl)c3)[C@@H]2C1=O, which Activity [1] is on record?
Answer: Dose-Dependent Effect

Question: And the Ki [2]?
Answer: 0.4 nM

Question: What about the Activity [3] of the same compound?
Answer: 1.18%

Question: And the Activity [4]?
Answer: Active

Question: What about the Activity [5] of the same compound?
Answer: 0.797%

Question: And the Ki [6]?
Answer: > 27000 nM

Question: And the “Ratio IC50” value [7]?
Answer: 1.6

Question: And the Activity [8]?
Answer: 89.4%

Question: What about the Activity [9] of the same compound?
Answer: 48.8%

Question: And the IC50 [10]?
Answer: 28.1 nM

Question: And the viability at 24.3 µM [11]?
Answer: 8.63%

Question: What about the Activity [12] of the same compound?
Answer: inactive

Question: What about the Activity [13] of the same compound?
Answer: Active

Question: What about the Activity [14] of the same compound?
Answer: Dose-Dependent Effect

Question: What about the Activity [15] of the same compound?
Answer: Active

Question: What about the Activity [16] of the same compound?
Answer: 1.06%

Question: What about the viability at 0.3 µM [17] of the same compound?
Answer: 74.5%
